Experimental data published in patent publication US5498632A, “Esters of acyl carnitines with long-chain aliphatic alcohols and pharmaceutical compositions containing same having antibacterial activity” (Sigma-Tau Industrie Farmaceutiche Riunite S.p.A., priority 1992, dated 1996).
Like-named read-outs stand apart in the source and are kept apart here.

How the values were obtained:
Salmonella typhi (J) = test: MIC in broth, Gram- strains; assay type: cell-based; settings: Salmonella enterica, 18 h, read-out: Minimal Inhibitory Concentration (MIC)
Procedure, shortened: (§1)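 An overnight Mueller-Hinton culture was matched to 0.5 McFarland turbidity and adjusted to 5.0×10^4 CFU/ml final. Equal volumes of this suspension and two-fold compound dilutions were combined, then incubated 18 h at 37 °C before the minimal inhibitory concentration was read.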

Escherichia coli (R 57B) = test: MIC in broth, Gram- strains; assay type: cell-based; settings: 18 h, E. coli (R 57B), read-out: Minimal Inhibitory Concentration (MIC)
Procedure, shortened: as §1

[1] = tested on: Klebsiella aerogenes (SH 1082); test: MIC in broth, Gram- strains; assay type: cell-based; settings: 18 h, read-out: Minimal Inhibitory Concentration (MIC)
Procedure, shortened: as §1

Proteus mirabilis (32) = test: MIC in broth, Gram- strains; assay type: cell-based; settings: 18 h, read-out: Minimal Inhibitory Concentration (MIC)
Procedure, shortened: as §1

[2] = tested on: Salmonella typhimurium (D.S.); test: MIC in broth, Gram- strains; assay type: cell-based; settings: Salmonella enterica, 18 h, read-out: Minimal Inhibitory Concentration (MIC)
Procedure, shortened: as §1

[3] = tested on: Pseudomonas aeruginosa (3 E); test: MIC in broth, Gram- strains; assay type: cell-based; settings: 18 h, read-out: Minimal Inhibitory Concentration (MIC)
Procedure, shortened: as §1

Klebsiella oxytoca (552) = test: MIC in broth, Gram- strains; assay type: cell-based; settings: 18 h, read-out: Minimal Inhibitory Concentration (MIC)
Procedure, shortened: as §1

Proteus vulgaris (UM) = test: MIC in broth, Gram- strains; assay type: cell-based; settings: 18 h, read-out: Minimal Inhibitory Concentration (MIC)
Procedure, shortened: as §1

Gram+ bacterial strains = test: Mean MIC in broth and resistant strain number, Gram+ strains; assay type: cell-based; settings: 18 h, versus susceptible strains
Description: Evaluation of the Minimal Inhibitory Concentration (MIC) in broth of 15 new substances for Gram+ bacterial strains.
The following strains were used: Staphylococcus aureus (4); Streptococcus faecalis (8); Bacillus pumilus (1); Bacillus subtilis (1).
MICs were determined by a standard microdilution test, using serial two-fold dilutions of the substances in Mueller-Hinton broth.
The inoculum was prepared from an overnight culture in Mueller-Hinton broth matching the 0.5 Mc Farland (turbidity) standard (BRAY W. E., Clinical Laboratory Methods, 5th Ed. C. V. MOSBY, St. Louis, Mo. 1957), and was adjusted to a final concentration of 5.0×10^4 colony-forming units/ml.
Equal volumes (0.1 ml) of both bacterial suspensions and substance solutions were distributed in microtiter plates (Falcon, 96 wells, round bottom), and then placed in a humidified incubator (37° C.) for 18 hours.
The results, in terms of MIC values, resistant strain number and mean MIC values versus susceptible strains, are illustrated in Tables 1-6.

[4] = tested on: Campylobacter coli LI 048; test: MIC in agar (agar dilution); assay type: cell-based
Description: (§2) In this experiment the activity of ST 722 and ST 712 against Campylobacter and Helicobacter was investigated.
(§3) Campylobacter fetus ATCC 27374, Campylobacter coli LI 048, Campylobacter jejuni 84-ISS, and Helicobacter pylori NCTC 11637.
(§4) The culture medium was Columbia agar base supplemented with 7% (V/V) defribinated horse blood (DHB) for Campylobacter strains, and the same medium additioned with Vitox (Oxoid) for Helicobacter strain.
(§5) The Campylobacter and Helicobacter strains, preserved at -80° C. in DHB containing 10% (V/V) glycerol, were thawed and grown, in their respective culture medium, in culture flasks, which were incubated for 48 hours at 37° C. in a 10% CO2 atmosphere. After this first growth cycle, the bacteria were allowed to go through a second growth cycle in the same conditions as above.
(§6) The bacterial "patina" was then harvested by resuspension in 4-5 ml of Mueller-Hinton broth, the turbidity of which was then assessed according to Mc Farland's criteria (BRAY W. E., Clinical Laboratory Methods, 5th Ed. C. V. MOSBY, St. Louis, Mo. 1957).
(§7) The Helicobacter suspension was adjusted to an approximate concentration of 1.0×10^9 and 1.0×10^8 organisms/ml, while the Campylobacter suspension was adjusted to 1.0×10^7 and 1.0×10^6 organisms/ml.
(§8) With a Steers-type multipoint inoculator (STEERS E., FOLTZ E. L., GRAVES S., RIDEN J., 1959. Inocula-replicating apparatus for routine testing of antibacterial susceptibility to antibiotics. Antibiot. Chemoter. 9: 307-311) 1-μl volumes of the above standardized suspensions were spot-transferred into the wells of a 96-well microtiter plate, which had previously been filled with 0.2 ml/well of Mueller-Hinton agar 5% DHB, containing the test substances at different concentrations.
(§9) The plates was then incubated for 48/72 hours at 37° C. in a 10% CO2 atmosphere.

[5] = tested on: Campylobacter fetus ATCC 27374; test: MIC in agar (agar dilution); assay type: cell-based
Description: as §2, §3, §4, §5, §6, §7, §8, §9

[6] = tested on: Campylobacter jejuni 84-ISS; test: MIC in agar (agar dilution); assay type: cell-based
Description: as §2, §3, §4, §5, §6, §7, §8, §9

[7] = tested on: Helicobacter pylori NCTC 11637; test: MIC in agar (agar dilution); assay type: cell-based; settings: for MIC: Helicobacter pylori, NCTC11637
Description: as §2, §3, §4, §5
The bacterial "patina" was then harvested by resuspension in 4-5 ml of Mueller-Hinton broth, the turbidity of which was then assessed according to Mc Farland's criteria (BRAY W. E., Clinical Laboratory Methods, 5th Ed. C. V. MOSBY, St. Louis, Mo. 1957). […]
as §8, §9

Gram- bacterial strains = test: Mean MIC in broth and resistant strain number, Gram- strains; assay type: cell-based; settings: 18 h; Gram- strains; versus susceptible strains; read-out: Mean MIC values
Procedure, shortened: as §1

peritoneal macrophage = test: Test 4: peritoneal macrophage number in mice; assay type: in vivo, mouse (male B6 D2 F1); settings: 100 mg/kg/day for 5 consecutive days, oral
Description: Evaluation of the effect of repeated oral administrations of ST 722 on the peritoneal macrophage number in mice.
Male B6 D2 F1 mice (C. River) aged 10 weeks (6 animals each group) were orally treated with the substance ST 722 at the dose of 100 mg/kg/day for 5 consecutive days. Twenty-four hours after the last administration, the animals were sacrificed, the peritoneal exudate cells (PEC) collected and the macrophage number determined.

CCCCCCCCCCCOC(=O)CC(C[N+](C)(C)C)OC(=O)CC(C)C [ST 722, Isovaleryl-L-Carnitine Undecyl Ester Chloride]
MIC (Salmonella typhi (J)): 25 µg/mL | MIC (Escherichia coli (R 57B)): 25 µg/mL | MIC [1]: 25 µg/mL | MIC (Proteus mirabilis (32)): > 100 µg/mL | MIC [2]: 25 µg/mL | MIC [3]: 50 µg/mL | MIC (Klebsiella oxytoca (552)): 12.5 µg/mL | MIC (Proteus vulgaris (UM)): 50 µg/mL | MIC (Gram+ bacterial strains): 3.12 µg/mL | MIC ([4]; Campylobacter coli, LI048, I = inoculum of 1.0 × 10^3): 3.12 µg/mL | MIC in agar ([4]; II = inoculum of 1.0 × 10^4): 3.12 µg/mL | MIC ([5]; Campylobacter fetus, ATCC27374, I = inoculum of 1.0 × 10^3): 100 µg/mL | MIC in agar ([5]; II = inoculum of 1.0 × 10^4): 100 µg/mL | MIC ([6]; I = inoculum of 1.0 × 10^3): 12.5 µg/mL | MIC ([6]; II = inoculum of 1.0 × 10^4): 12.5 µg/mL | MIC ([7]; I = inoculum of 1.0 × 10^5 cells/ml, read-out: MIC in agar): 1.56 µg/mL | MIC ([7]; agar medium, inoculum not given, read-out: MIC vs. H. pylori NCTC 11637): 1.56 µg/mL | MIC in agar ([7]; II = inoculum of 1.0 × 10^6 cells/ml): 1.56 µg/mL | antibacterial activity for Helicobacter and Campylobacter ([7]; agar, Helicobacter and Campylobacter strains): possess an antibacterial activity | MIC (Gram- bacterial strains): 35.7 µg/mL | Body weight (peritoneal macrophage): 28.13 ± 1.30 g | increase in the peritoneal macrophages number (peritoneal macrophage): about 60% | toxic effect in PEC macrophage population (peritoneal macrophage): No toxic effect has been observed | PEC M.phi. (peritoneal macrophage; 6 pooled samples): 63%
